# Measured values published in US10011571B2, “Preparation method for aromatic heterocyclic compound used as selective JAK3 and/or JAK1 kinase inhibitor and application of aromatic heterocyclic compound” (SHENZHEN CHIPSCREEN BIOSCIENCES, LTD., priority 2014, dated 2018).
# Legend:
# JAK3 = JAK3 (Homo sapiens (Human), UniProt P52333); assay: Z'-LYTE enzymatic activity detection, JAK3; format: biochemical; conditions: test compound 30 nM; for inhibition at 0.03 µM: read-out: JAK3 % inhibitory rate @30 nM
# Method in brief: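 GST-tagged human recombinant kinases with Z′-LYTE peptides (Tyr6 for JAK1, Tyr4 for JAK2 and JAK3), ATP from kit, reacted 1 h at room temperature; development 1 h, ratio 445/520 nm at 400 nm excitation gives phosphorylation. Inhibition vs solvent control at 30 nM (JAK2, JAK3) or 300 nM (JAK1); tofacitinib as positive control.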
# JAK2 = JAK2 (Homo sapiens (Human), UniProt O60674); assay: Eurofins IC50Profiler radiometric kinase assay, JAK2; format: biochemical; conditions: 9 semilog concentrations
# From the text: A proportion of the compounds of the present invention are subjected to kinase profile screening (KinaseProfiler™)) and enzymatic inhibitory activity (IC50Profiler™)) assay by entrusting Eurofins company (http://www.eurofins.com). Besides the kinases in the JAK family, the kinases that have been screened for their activity also include most Group 3F and Group 4 kinases (ITK, BLK, TBK1, VEGFRs, ERBBs, etc.), and blood system related kinases (Zhang J. et al. 2009, Nat. Rev. Cancer., 9: 28-39). The concentration of the test compound for kinase profile screening is 1 μM, and a gradient of 9 semilog concentration gradients are used to determine IC50. Detection is carried out according to standard procedure of Eurofins Company. Briefly, according to the requirements of different kinase reactions, 0.2 μL test compound (50 μM, dissolved in dimethyl sulfoxide (DMSO)) is added to reaction buffer containing specific kinase (the buffer system containing 20 mM MOPS, 1 mM EDTA, 0.01% Brij-35, 5% Glycerol, 0.1% β-mercaptoethanol, 1 mg/mL BSA, or 50 mM TRIS, 0.1 mM EGTA, 0.1 mM Na3VO4, 0.1% β-mercaptoethanol, 1 mg/mL BSA, based on the type of kinase used). Subsequently, a kinase specific substrate at a final concentration of 50 μM (specific substrate used for specific kinase), 10 mM Mg Acetate and isotope-labeled γ-^33P ATP (radio-activity of about 500 cpm/pmol) are sequentially added to a total volume of 10 μL for the reaction system. After incubation at room temperature for 40 min, the reaction is terminated by adding 3% phosphoric acid solution. The mixture is then transferred to a filter-type low temperature spray dryer (P30 filtermat), and washed by 75 mM phosphoric acid solution for 3 times and by methanol once. After drying, radio-activity is detected. For specific procedure, see the standard procedure provided by Eurofins Company: http://www.eurofins.com/media/9724077/kinaseprofiler_assay_protocol_guide_eurofins_v64.pdf).
# JAK3, sequence (P52333 whole entry): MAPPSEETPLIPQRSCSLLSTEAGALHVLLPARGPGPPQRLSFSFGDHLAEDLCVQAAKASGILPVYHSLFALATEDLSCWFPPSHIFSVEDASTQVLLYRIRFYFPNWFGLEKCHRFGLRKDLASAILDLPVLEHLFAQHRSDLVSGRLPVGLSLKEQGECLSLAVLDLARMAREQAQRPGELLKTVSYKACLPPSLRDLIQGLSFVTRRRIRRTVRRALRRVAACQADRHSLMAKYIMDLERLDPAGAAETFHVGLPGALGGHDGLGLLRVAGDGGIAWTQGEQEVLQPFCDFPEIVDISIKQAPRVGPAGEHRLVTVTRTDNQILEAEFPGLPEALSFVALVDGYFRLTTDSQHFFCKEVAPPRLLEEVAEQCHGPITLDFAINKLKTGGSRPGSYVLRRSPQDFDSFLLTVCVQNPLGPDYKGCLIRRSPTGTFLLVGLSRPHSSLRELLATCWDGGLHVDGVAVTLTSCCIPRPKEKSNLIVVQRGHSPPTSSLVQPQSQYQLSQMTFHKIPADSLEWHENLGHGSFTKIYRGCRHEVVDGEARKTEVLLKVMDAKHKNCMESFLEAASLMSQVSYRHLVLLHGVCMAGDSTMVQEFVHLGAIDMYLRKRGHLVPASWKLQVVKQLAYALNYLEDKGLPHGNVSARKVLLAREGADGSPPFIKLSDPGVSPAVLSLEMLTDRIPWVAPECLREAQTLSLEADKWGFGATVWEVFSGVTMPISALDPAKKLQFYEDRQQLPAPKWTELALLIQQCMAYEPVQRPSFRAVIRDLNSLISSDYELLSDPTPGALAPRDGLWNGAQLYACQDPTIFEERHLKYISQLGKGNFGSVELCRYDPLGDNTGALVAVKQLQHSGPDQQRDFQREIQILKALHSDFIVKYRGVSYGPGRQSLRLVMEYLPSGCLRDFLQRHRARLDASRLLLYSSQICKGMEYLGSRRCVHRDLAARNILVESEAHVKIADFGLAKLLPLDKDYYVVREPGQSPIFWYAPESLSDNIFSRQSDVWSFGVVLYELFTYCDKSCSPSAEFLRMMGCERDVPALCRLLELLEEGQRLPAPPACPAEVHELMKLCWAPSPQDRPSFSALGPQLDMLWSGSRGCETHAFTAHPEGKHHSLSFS
# JAK2, sequence (O60674 whole entry, species assumed): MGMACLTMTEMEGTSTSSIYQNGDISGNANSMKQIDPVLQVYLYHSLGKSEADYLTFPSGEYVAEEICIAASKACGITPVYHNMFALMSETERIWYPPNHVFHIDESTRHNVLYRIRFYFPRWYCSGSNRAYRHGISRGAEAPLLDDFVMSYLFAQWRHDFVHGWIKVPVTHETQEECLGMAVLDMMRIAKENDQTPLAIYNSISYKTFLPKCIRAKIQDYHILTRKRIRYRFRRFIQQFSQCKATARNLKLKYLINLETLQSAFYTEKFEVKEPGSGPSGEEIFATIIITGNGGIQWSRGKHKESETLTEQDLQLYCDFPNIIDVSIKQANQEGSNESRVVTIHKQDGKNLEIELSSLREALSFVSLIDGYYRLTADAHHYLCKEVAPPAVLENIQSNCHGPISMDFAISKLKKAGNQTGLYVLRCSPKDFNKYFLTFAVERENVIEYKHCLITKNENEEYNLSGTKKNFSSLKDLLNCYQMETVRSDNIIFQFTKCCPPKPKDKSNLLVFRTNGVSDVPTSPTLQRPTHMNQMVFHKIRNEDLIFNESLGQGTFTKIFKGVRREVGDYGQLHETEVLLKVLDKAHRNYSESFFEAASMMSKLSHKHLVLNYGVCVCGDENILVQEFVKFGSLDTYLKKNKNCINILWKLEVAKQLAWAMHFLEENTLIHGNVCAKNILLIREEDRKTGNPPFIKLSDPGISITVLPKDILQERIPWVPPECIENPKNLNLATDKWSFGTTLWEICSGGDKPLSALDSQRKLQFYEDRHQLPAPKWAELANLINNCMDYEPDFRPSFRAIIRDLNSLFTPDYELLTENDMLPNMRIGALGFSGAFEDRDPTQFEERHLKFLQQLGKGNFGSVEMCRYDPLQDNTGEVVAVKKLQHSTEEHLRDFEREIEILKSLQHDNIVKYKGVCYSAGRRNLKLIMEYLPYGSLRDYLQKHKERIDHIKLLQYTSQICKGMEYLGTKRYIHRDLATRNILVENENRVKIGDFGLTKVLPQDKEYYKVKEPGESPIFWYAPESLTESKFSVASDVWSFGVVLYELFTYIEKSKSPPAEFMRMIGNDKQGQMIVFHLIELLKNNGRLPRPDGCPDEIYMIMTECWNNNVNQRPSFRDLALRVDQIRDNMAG
Structure (SMILES),JAK3 RV (ratio between the inhibitory rate of the test compound and that of Xeljanz) (JAK3),inhibition at 0.03 µM (JAK3),IC50 (JAK2)
"C=CC(=O)N(C)c1cc(Nc2ncc(Cl)c(NCCCNC(=O)c3ccc(F)cc3)n2)ccc1F [Example 23, N-(3-(5-chloro-2-(4-fluoro-3-(N-methylacrylamido)phenylamino)pyrimidinyl-4-amino)propyl)-4-fluorobenzamide]",0.88,81%,1.92 µM
"C=CC(=O)N(C)c1cc(Nc2ncc(Cl)c(NCCCNC(=O)c3ccc(C(F)(F)F)cc3)n2)ccc1F [Example 22, N-(3-(5-chloro-2-(4-fluoro-3-(N-methylacrylamido)phenylamino)pyrimidinyl-4-amino)propyl)-4-trifluoromethylbenzamide]",0.82,75%,> 10 µM
"C=CC(=O)N(C)c1cc(Nc2ncc(Cl)c(NCCCNC(=O)c3ccc(C#N)cc3)n2)ccc1F [Example 7, N-(3-(5-chloro-2-(4-fluoro-3-(N-methylacrylamido)phenylamino)pyrimidinyl-4-amino)propyl)-4-cyano-benzamide]",0.84,63%,1.4 µM
